Where a name gives a salt, the structure may show the parent alone.
What was measured:
[1] = tested on: macropinocytic uptake of pathogenic bacteria; settings: ref [10],[11]; cited from earlier work
[2] = tested on: LNCaP cells expressing Abi1 Y213F; assay: flow cytometric uptake of Alexa Fluor 647; type: cell-based; settings: 25 μM Alexa Fluor 647 hydrazide, 2 hours
NIH 3T3 cells = settings: ref [9]; cited from earlier work
[3] = tested on: macropinocytic uptake and membrane ruffles; settings: ref [21]; cited from earlier work
Rac1 activation = settings: ref [25]; cited from earlier work

Molecule: Cc1ccc(NC(=O)c2ccc(CN3CCN(C)CC3)cc2)cc1Nc1nccc(-c2cccnc2)n1 [STI-571, Imatinib mesylate]
- macropinocytic uptake of pathogenic bacteria [1]: inhibits macropinocytic uptake of pathogenic bacteria

Molecule: C/C1=C/C(=O)O[C@@H]2C[C@@H](CC[C@H](C)/C=C\C=C\CC1)O[C@@](O)([C@@H]1CSC(=O)N1)C2 [Latrunculin A, latrunculin A]
- macropinocytic uptake of Alexa Fluor 647 with latrunculin A, Abi1 Y213F cells ([2]; 0.2 μM latrunculin A, PDGF not added): significant decrease

Molecule: COC[C@H]1OC(=O)c2coc3c2[C@@]1(C)C1=C(C3=O)[C@@H]2CCC(=O)[C@@]2(C)C[C@H]1OC(C)=O [wortmannin]
- macropinocytic uptake of Alexa Fluor 594 (NIH 3T3 cells): inhibit macropinocytic uptake
- macropinocytic uptake and formation of membrane ruffles [3]: inhibits macropinocytic uptake and the formation of membrane ruffles but not in all cells

Molecule: O=c1cc(N2CCOCC2)oc2c(-c3ccccc3)cccc12 [LY294002]
- macropinocytic uptake of Alexa Fluor 594 (NIH 3T3 cells): inhibit macropinocytic uptake

B1: PDGF: PDGF BB (cat # 3201), Sigma-Aldrich (protein, UniProt P01127 82-190, looked up)
Platelet-derived growth …: SLGSLTIAEPAMIAECKTRTEVFEISRRLIDRTNANFLVWPPCVEVQRCSGCCNNRNVQCRPTQVQLRPVQVRKIEIVRKKPIFKKATVTLEDHLACKCETVAAARPVT
modifications: Platelet-derived growth factor subunit B homodimer
- Rac1 activation following PDGF stimulation (Rac1 activation): enhanced Rac1 activation
- PDGF response of Alexa Fluor 647 uptake, Abi1 Y213F cells ([2]; 10 ng/ml PDGF): demonstrated PDGF response

— PMC2917628 (FEBS letters, 2010)
